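Five compound concentrations were applied to cells in 96-well plates for 48 hours; endpoints were derived by simple linear interpolation of the resulting dose-response curve. TGI is the concentration that stops growth completely.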
Experiments:
Experiment in all cases: NCI tumour cell line growth inhibition, 48 h
[1] = test system: ACHN renal
[2] = test system: HCC-2998 colon
[3] = test system: IGROV1 ovarian
[4] = test system: MDA-MB-435
[5] = test system: MOLT-4 leukemia
[6] = test system: NCI-H226 lung
[7] = test system: NCI/ADR-RES ovarian
[8] = test system: RPMI-8226 leukemia
[9] = test system: SW-620 colon
[10] = test system: MALME-3M melanoma

O=C(OCC(OC(=O)c1ccccc1)C1CC(C(O)C2CCCCC2)C(=O)O1)c1ccccc1 (stereo not drawn)
TGI [1]: > 100 µM
TGI [2]: > 100 µM
TGI [3]: > 100 µM
TGI [4]: > 100 µM
TGI [5]: 47.9 µM
TGI [6]: > 100 µM
TGI [7]: > 100 µM
TGI [8]: 78.9 µM
TGI [9]: > 100 µM

C=C1CC2C[C@H](OS(=O)(=O)c3ccc(C)cc3)C(C1)N2C (stereo partly drawn)
TGI [2]: > 100 µM
TGI [3]: > 100 µM
TGI [10]: > 100 µM
TGI [4]: > 100 µM
TGI [5]: > 100 µM
TGI [6]: > 100 µM
TGI [7]: > 100 µM
TGI [8]: > 100 µM
TGI [9]: > 100 µM

CCCCCC(=O)OCC1(CO)C/C(=C/CC(C(C)C)C(C)C)C(=O)O1 (stereo not drawn)
TGI [1]: > 75 µM
TGI [2]: > 75 µM
TGI [3]: 37.2 µM
TGI [10]: 65.6 µM
TGI [4]: > 75 µM
TGI [6]: > 75 µM
TGI [7]: > 75 µM
TGI [9]: > 75 µM

N#Cc1nc(-c2ccccn2)c(-c2ccccn2)nc1C#N
TGI [1]: 7.95 µM
TGI [2]: 17.6 µM
TGI [3]: 22.2 µM
TGI [4]: 22.4 µM
TGI [5]: > 30.6 µM
TGI [6]: 5.51 µM
TGI [7]: 8.5 µM
TGI [8]: > 100 µM
TGI [9]: > 43.5 µM

Cn1c(-c2cccs2)cc(-c2ccsc2)c1-c1ccsc1
TGI [1]: > 100 µM
TGI [2]: > 100 µM
TGI [3]: > 100 µM
TGI [10]: > 100 µM
TGI [4]: > 100 µM
TGI [5]: > 100 µM
TGI [6]: > 100 µM
TGI [7]: > 100 µM
TGI [9]: > 100 µM

CC1[C@@H]2C[C@@H]3O[C@@]34[C@H]3CCC5Cc6nc7c(nc6C[C@@]5(C)C3(O)CC(=O)[C@@]24CO[C@]12OC(C)(C)CC2O)CC1CC[C@@H]2C3=C[C@H]4O[C@@]5(O[C@@](C)(CO)C[C@@H]5O)C(C)[C@@]4(O)[C@]3(C)[C@@H](O)CC2[C@]1(C)C7 (stereo partly drawn)
TGI [2]: > 3.52 µM
TGI [3]: > 3.52 µM
TGI [10]: 0.247 µM
TGI [6]: > 3.52 µM
TGI [7]: > 3.52 µM
TGI [8]: > 3.52 µM
TGI [9]: 0.49 µM

COc1nc2ncc([C@@H](O)[C@H](O)CO)nc2c(=O)[nH]1
TGI [1]: > 100 µM
TGI [3]: > 100 µM
TGI [10]: > 100 µM
TGI [4]: > 100 µM
TGI [5]: > 100 µM
TGI [6]: > 100 µM
TGI [7]: > 100 µM
TGI [8]: > 100 µM
TGI [9]: > 100 µM

CC1C/C(=C\c2ccc(O)c(O)c2)C(=O)/C(=C/c2ccc(O)c(O)c2)C1 (stereo not drawn)
TGI [1]: 21.6 µM
TGI [2]: 35.1 µM
TGI [3]: 19.8 µM
TGI [10]: 25.1 µM
TGI [4]: 9.74 µM
TGI [5]: 20.3 µM
TGI [6]: 9.64 µM
TGI [7]: 57.7 µM
TGI [9]: 34.6 µM

O=S1(=O)OCCOS(=O)(=O)C1S(=O)(=O)c1cccc2ccccc12
TGI [1]: > 100 µM
TGI [2]: > 100 µM
TGI [3]: > 100 µM
TGI [10]: > 100 µM
TGI [4]: > 100 µM
TGI [5]: > 100 µM
TGI [7]: > 100 µM
TGI [8]: > 100 µM
TGI [9]: > 100 µM

Clc1ccc(C2=NNC(c3cccc(Cl)c3)C2)cc1 (stereo not drawn)
TGI [3]: 5.07 µM
TGI [10]: > 100 µM
TGI [4]: 41.8 µM
TGI [5]: > 100 µM
TGI [6]: > 100 µM
TGI [7]: 89.9 µM
TGI [8]: 41 µM
TGI [9]: 74.9 µM

CCOC(=O)C1=C(C)N(c2ccc(Cl)cc2)C2(O)C=CC(=O)C3C(=O)N(c4ccccc4)C(=O)C132 (stereo not drawn)
TGI [1]: 3.07 µM
TGI [3]: 3.11 µM
TGI [10]: 3.57 µM
TGI [4]: 6.83 µM
TGI [5]: 3.72 µM
TGI [7]: 6.72 µM
TGI [8]: 3.77 µM
TGI [9]: 3.68 µM

Cc1cccc(-c2cc(=O)c3cc(C)cnc3[nH]2)c1
TGI [1]: > 100 µM
TGI [2]: 6.82 µM
TGI [3]: > 100 µM
TGI [10]: > 100 µM
TGI [5]: > 100 µM
TGI [6]: 2.79 µM
TGI [7]: 0.394 µM
TGI [8]: 30.1 µM

S=C1NNC(=S)NN1
TGI [1]: > 1 µM
TGI [2]: > 1 µM
TGI [3]: > 1 µM
TGI [10]: > 1 µM
TGI [5]: 0.898 µM
TGI [6]: > 1 µM
TGI [7]: > 1 µM
TGI [8]: > 1 µM
TGI [9]: > 1 µM

NS(=O)(=O)c1ccc(NS(=O)(=O)c2ccc(NC(=O)N(c3ccccc3)c3ccccc3)cc2)cc1
TGI [1]: > 100 µM
TGI [3]: > 100 µM
TGI [10]: > 100 µM
TGI [4]: 77 µM
TGI [5]: > 100 µM
TGI [6]: > 100 µM
TGI [7]: > 100 µM
TGI [8]: 94.9 µM
TGI [9]: > 100 µM

Cc1cnc2[nH]c(-c3sccc3C)cc(=O)c2c1
TGI [1]: > 100 µM
TGI [2]: 96.8 µM
TGI [3]: > 100 µM
TGI [10]: > 100 µM
TGI [5]: > 84.5 µM
TGI [6]: 39.3 µM
TGI [7]: > 100 µM
TGI [8]: > 100 µM
TGI [9]: > 100 µM

c1ccc(C2C3=C(CCCC3)Nc3nnnn32)cc1 (stereo not drawn)
TGI [1]: > 100 µM
TGI [3]: > 100 µM
TGI [4]: > 100 µM
TGI [5]: > 100 µM
TGI [7]: > 100 µM
TGI [9]: > 100 µM

CC(C)c1cc(C(C)C)c(B(c2ccccc2)c2ccccc2)c(C(C)C)c1Br
TGI [1]: > 100 µM
TGI [2]: > 100 µM
TGI [3]: > 100 µM
TGI [10]: > 100 µM
TGI [4]: > 100 µM
TGI [5]: > 100 µM
TGI [6]: > 100 µM
TGI [7]: > 100 µM
TGI [9]: > 100 µM

O=C1CSC2=NC3=C(COC/C3=C\c3ccc(F)cc3)C(c3ccc(F)cc3)N12 (stereo not drawn)
TGI [1]: > 100 µM
TGI [2]: > 100 µM
TGI [3]: > 100 µM
TGI [4]: > 100 µM
TGI [5]: > 100 µM
TGI [6]: > 100 µM
TGI [7]: > 100 µM
TGI [8]: > 100 µM
TGI [9]: > 100 µM

CC1=CCC(=O)[C@]2(C)C(CC(=O)O)[C@]3(C)C4=C(C)C(c5ccoc5)C[C@@H]4O[C@@H]3[C@H](O)[C@@H]12 (stereo partly drawn)
TGI [1]: > 100 µM
TGI [2]: > 100 µM
TGI [3]: > 100 µM
TGI [10]: > 100 µM
TGI [4]: > 100 µM
TGI [5]: > 100 µM
TGI [7]: > 100 µM
TGI [8]: > 100 µM
TGI [9]: > 100 µM

O=C1/C(=C/Cc2ccco2)N=C(c2ccccc2)N1c1nc2c(Cl)cc(Cl)cc2s1
TGI [1]: 74.6 µM
TGI [2]: > 100 µM
TGI [3]: > 100 µM
TGI [4]: 60.1 µM
TGI [5]: 33.3 µM
TGI [7]: 84.5 µM
TGI [8]: 35.4 µM
TGI [9]: > 100 µM

O=C(c1cccs1)N(C(=O)N1CCCCC1)c1ccccc1
TGI [1]: > 100 µM
TGI [3]: > 100 µM
TGI [10]: > 100 µM
TGI [4]: > 100 µM
TGI [5]: > 100 µM
TGI [6]: > 100 µM
TGI [7]: > 100 µM
TGI [8]: > 100 µM
TGI [9]: > 100 µM

Cc1nc2ccccc2nc1N1CCCC1
TGI [1]: > 100 µM
TGI [2]: > 100 µM
TGI [3]: > 100 µM
TGI [10]: > 100 µM
TGI [4]: > 100 µM
TGI [6]: > 100 µM
TGI [7]: > 100 µM
TGI [8]: > 100 µM
TGI [9]: > 100 µM
